# Test results from ChEMBL document CHEMBL1201862, “PubChem BioAssay data set” (2004).
# Activity calls are given as the source filed them.
# What was measured:
# [1] = biological target: T1, High affinity choline transporter 1 (Homo sapiens, UniProt Q9GZV3); assay: human choline transporter blockers, potency – cell-based, 5-point CRC, membrane potential dye, dose response (AID 504840); assay type: functional
# T1 sequence (Q9GZV3 whole entry): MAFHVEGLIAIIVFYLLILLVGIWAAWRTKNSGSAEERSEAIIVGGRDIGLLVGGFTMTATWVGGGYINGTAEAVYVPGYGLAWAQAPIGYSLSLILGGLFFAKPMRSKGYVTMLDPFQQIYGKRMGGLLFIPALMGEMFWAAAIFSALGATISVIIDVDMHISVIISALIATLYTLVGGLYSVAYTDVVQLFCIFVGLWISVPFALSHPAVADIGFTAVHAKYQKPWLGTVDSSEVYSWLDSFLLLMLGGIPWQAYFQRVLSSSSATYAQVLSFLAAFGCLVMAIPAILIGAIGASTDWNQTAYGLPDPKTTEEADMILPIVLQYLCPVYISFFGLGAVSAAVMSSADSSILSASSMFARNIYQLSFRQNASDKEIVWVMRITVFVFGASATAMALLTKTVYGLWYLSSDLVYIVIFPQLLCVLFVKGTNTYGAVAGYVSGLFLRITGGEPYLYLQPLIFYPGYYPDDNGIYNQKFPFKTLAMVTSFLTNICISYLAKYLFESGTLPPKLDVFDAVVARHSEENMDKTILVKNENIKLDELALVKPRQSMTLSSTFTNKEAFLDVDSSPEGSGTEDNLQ
# Cytochrome P450 2D6 = Cytochrome P450 2D6 (Homo sapiens, UniProt P10635);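 note: CYP2D6 member of a cytochrome P450 panel assay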
# Cytochrome P450 2D6, sequence (P10635 whole entry): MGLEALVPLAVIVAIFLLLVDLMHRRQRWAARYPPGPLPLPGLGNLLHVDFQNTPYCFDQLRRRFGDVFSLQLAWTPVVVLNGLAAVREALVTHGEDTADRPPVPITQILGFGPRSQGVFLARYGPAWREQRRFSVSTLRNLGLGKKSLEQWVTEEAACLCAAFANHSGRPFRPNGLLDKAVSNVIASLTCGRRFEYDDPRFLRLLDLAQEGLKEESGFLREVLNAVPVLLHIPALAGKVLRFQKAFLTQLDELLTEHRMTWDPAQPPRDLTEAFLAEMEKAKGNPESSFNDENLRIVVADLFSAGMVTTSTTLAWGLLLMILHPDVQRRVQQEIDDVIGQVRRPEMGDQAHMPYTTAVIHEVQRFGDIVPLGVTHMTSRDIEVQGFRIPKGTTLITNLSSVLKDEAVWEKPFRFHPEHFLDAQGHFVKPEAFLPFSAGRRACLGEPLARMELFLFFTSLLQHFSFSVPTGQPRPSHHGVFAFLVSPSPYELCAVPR
# Large T antigen = Large T antigen (Simian virus 40, UniProt P03070); assay type: functional, Betapolyomavirus macacae;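 note: Confirmatory-stage PubChem screen for compounds that inhibit SV40 T antigen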
# Large T antigen, sequence (P03070 whole entry): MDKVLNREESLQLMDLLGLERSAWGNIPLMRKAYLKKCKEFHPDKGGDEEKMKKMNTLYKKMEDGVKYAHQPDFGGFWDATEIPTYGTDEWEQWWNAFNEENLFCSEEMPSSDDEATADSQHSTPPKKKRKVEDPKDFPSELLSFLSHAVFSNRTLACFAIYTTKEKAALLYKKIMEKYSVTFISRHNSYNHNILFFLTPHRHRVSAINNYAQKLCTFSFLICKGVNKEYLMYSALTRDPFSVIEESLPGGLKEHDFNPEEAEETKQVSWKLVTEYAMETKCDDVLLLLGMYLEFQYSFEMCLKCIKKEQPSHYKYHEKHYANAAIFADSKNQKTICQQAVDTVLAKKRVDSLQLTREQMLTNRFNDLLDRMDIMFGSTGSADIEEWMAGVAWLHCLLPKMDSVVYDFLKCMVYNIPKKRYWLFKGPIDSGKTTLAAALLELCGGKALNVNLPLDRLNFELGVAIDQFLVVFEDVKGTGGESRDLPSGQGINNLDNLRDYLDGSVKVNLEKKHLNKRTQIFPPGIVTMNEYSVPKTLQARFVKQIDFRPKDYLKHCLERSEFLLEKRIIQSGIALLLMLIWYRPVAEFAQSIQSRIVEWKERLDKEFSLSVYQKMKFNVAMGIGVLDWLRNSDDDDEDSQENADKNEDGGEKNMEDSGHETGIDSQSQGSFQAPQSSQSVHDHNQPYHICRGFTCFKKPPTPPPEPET
# Leucine aminopeptidase = biological target: T2, Leucine aminopeptidase (Plasmodium falciparum 3D7, UniProt Q8IL11); assay: P. falciparum M17LAP inhibitors, primary screen, biochemical, fluorogenic H-Leu-NHMec substrate, 1536-well (AID 1619); assay type: functional
# T2 sequence (Q8IL11 whole entry): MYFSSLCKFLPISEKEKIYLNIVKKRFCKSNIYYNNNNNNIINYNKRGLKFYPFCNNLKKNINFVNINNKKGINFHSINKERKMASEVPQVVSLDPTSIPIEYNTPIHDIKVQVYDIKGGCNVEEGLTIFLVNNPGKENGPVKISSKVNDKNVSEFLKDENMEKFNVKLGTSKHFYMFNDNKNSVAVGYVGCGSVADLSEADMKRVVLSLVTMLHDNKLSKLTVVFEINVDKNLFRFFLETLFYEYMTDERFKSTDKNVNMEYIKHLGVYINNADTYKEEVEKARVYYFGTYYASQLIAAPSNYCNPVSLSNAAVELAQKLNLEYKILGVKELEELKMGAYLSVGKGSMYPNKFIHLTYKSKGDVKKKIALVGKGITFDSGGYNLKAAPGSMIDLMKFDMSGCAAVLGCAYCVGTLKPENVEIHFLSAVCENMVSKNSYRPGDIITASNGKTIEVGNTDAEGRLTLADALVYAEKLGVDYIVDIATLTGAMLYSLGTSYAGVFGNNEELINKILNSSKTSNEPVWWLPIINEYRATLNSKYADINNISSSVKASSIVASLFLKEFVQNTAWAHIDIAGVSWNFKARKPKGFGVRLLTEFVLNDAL
# [2] = biological target: Eukaryotic translation initiation factor 4E (Mus musculus, UniProt P63073); assay: blockers of eIF4G binding by eIF4E – biochemical, TR-FRET, dose response (AID 855); assay type: functional;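 note: potency for disrupting eIF4E binding to eIF4GI seen as loss of FRET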
# Eukaryotic translation initiation factor 4E, sequence (P63073 whole entry): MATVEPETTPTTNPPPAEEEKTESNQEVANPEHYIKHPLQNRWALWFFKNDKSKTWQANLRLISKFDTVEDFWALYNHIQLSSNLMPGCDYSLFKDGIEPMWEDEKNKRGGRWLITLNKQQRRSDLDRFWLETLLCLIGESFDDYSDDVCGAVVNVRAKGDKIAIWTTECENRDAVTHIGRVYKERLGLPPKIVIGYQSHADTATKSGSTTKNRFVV
# Coagulation factor XII = biological target: T3, Coagulation factor XII (Homo sapiens, UniProt P00748); assay type: functional;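 note: activated factor XIIa alpha cleaving a fluorogenic AMC peptide substrate; inhibitor potency from loss of enzyme activity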
# T3 sequence (P00748 whole entry): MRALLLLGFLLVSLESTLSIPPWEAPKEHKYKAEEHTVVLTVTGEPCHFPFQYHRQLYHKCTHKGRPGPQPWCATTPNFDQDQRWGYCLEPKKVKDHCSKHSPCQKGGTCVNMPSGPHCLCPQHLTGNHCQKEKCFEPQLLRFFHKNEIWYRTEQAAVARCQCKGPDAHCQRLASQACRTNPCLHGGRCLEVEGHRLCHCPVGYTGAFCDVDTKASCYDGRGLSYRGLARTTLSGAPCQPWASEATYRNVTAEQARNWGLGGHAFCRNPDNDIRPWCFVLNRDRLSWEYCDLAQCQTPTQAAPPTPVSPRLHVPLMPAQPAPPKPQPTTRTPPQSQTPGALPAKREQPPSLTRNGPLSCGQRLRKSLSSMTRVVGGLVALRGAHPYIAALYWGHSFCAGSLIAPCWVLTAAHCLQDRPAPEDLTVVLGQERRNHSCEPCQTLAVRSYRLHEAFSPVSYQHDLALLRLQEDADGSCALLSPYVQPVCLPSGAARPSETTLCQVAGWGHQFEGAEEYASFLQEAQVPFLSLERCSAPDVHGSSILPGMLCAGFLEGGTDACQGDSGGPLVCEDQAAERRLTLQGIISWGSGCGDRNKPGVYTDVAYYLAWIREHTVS
# [3] = biological target: T4, Rac GTPase-activating protein 1 (Homo sapiens, UniProt Q9H0H5); assay: blockers of MgcRacGAP-driven Rac1 GTP hydrolysis – biochemical, ADP Hunter fluorescence, primary and confirmatory, confirmation (AID 624330); assay type: functional
# T4 sequence (Q9H0H5 whole entry): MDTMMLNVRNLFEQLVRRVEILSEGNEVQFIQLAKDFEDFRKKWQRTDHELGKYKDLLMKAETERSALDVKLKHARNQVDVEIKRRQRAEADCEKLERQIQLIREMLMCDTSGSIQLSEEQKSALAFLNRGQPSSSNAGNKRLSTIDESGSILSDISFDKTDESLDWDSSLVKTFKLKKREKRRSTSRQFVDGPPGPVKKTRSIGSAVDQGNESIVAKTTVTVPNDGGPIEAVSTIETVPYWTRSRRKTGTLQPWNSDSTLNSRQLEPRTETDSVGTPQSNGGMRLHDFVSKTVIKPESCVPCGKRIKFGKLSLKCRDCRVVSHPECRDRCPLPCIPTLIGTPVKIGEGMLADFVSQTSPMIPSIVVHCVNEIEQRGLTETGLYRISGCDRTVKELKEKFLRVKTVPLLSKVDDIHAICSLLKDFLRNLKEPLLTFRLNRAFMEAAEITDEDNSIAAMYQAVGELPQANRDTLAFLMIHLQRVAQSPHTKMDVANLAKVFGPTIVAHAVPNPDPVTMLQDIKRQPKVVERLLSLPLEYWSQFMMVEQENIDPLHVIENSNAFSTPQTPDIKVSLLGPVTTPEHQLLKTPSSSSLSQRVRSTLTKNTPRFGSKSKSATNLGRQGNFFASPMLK
# Cytochrome P450 1A2 = biological target: T5, Cytochrome P450 1A2 (Homo sapiens, UniProt P05177);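 note: PubChem cytochrome P450 panel assay, CYP1A2 panel member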
# T5 sequence (P05177 whole entry): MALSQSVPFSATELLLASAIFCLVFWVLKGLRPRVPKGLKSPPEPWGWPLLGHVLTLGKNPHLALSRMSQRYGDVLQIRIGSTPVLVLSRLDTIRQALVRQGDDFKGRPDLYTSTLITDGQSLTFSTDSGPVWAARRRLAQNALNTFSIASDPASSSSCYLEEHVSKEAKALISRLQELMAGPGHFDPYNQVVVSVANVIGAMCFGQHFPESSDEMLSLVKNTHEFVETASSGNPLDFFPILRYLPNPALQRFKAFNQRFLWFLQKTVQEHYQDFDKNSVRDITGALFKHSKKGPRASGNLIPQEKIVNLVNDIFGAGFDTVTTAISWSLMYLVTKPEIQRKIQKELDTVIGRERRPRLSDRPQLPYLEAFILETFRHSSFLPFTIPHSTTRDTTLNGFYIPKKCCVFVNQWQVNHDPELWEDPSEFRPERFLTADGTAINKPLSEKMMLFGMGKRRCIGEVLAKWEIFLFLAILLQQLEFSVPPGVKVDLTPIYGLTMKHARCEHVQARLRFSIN
# [4] = biological target: Induced myeloid leukemia cell differentiation protein Mcl-1 (Homo sapiens, UniProt Q07820); assay type: functional
# Induced myeloid leukemia cell differentiation protein Mcl-1, sequence (Q07820 whole entry): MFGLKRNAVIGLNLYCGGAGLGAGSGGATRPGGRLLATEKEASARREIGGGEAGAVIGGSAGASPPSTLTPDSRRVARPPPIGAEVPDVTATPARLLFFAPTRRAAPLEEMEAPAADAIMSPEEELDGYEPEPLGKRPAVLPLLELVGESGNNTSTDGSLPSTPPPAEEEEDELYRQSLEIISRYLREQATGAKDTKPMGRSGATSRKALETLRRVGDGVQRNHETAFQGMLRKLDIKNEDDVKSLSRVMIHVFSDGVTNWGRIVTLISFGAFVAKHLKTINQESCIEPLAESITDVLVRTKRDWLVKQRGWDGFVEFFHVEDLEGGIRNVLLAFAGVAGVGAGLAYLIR
# Streptokinase A = biological target: T6, Streptokinase A (Streptococcus pyogenes serotype M1, UniProt P10520); assay: viability-normalized secreted streptokinase activity reduction – plasminogen activation absorbance, OD405, dose response (AID 1914); assay type: functional, Streptococcus pyogenes M1 GAS;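 note: secreted streptokinase activity via plasminogen activation per viability signal from cell pellet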
# T6 sequence (P10520 whole entry): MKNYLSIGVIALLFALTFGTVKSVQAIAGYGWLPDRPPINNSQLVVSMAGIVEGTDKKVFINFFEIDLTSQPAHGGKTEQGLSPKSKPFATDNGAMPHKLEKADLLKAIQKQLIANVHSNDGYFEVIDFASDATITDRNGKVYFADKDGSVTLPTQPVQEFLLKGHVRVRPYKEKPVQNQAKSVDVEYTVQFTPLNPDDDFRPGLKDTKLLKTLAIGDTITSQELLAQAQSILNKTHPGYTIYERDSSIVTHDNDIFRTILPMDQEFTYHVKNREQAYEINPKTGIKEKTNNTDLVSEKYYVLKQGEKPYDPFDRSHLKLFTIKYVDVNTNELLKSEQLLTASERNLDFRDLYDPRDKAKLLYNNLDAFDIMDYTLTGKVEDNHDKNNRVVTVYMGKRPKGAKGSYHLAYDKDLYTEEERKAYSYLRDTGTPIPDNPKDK
# Streptococcus = assay: GAS UMAA2166 growth inhibition – luminescence, BacTiterGlo, counter-screen for streptokinase expression inhibitor project, dose response (AID 1915); assay type: functional, organism-based;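 note: potency for reduction of bacterial viability or growth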
# [5] = biological target: T7, Corticotropin-releasing factor receptor 2/Corticotropin-releasing factor-binding protein (Homo sapiens, UniProt P24387+Q13324); assay: Dose Response confirmation of uHTS hits for small molecule antagonists of the CRF-binding protein and CRF-R2 receptor complex.; assay type: functional; details: read-out: IC50_Mean
# T7 sequence (Q13324 whole entry): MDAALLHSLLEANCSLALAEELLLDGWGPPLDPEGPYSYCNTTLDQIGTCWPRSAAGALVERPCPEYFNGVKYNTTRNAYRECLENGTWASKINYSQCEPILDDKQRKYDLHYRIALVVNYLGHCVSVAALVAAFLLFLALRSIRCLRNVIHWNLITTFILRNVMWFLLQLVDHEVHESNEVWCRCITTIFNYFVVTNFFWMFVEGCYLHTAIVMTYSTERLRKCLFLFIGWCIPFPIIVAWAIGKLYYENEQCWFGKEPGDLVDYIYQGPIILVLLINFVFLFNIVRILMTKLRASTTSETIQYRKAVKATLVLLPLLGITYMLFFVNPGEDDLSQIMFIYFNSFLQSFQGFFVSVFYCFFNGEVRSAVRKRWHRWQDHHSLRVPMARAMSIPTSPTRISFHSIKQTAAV
# T7 sequence (P24387 whole entry): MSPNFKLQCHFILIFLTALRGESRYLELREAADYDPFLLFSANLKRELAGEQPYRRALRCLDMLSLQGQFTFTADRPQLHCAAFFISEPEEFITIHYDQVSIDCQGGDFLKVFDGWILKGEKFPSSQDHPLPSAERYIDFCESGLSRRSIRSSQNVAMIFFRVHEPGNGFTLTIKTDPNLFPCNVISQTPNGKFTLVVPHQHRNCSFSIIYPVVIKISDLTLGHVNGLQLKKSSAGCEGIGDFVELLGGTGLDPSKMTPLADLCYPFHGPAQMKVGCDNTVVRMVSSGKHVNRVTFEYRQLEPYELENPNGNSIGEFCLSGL
# [6] = biological target: T7, Corticotropin-releasing factor receptor 2/Corticotropin-releasing factor-binding protein; assay: activators of CRF receptor 2 with binding protein – uHTS hits, confirmation (AID 602473); assay type: functional; details: read-out: EC50_Mean
structure (smiles),measurement,setting,value
CC(C)CN1CCC(Oc2cccc(C(=O)NCCc3ccccc3)c2)CC1,IC50,[1],10.7 µM (active)
Nc1ccc(-c2sc(N)nc2-c2ccccc2)cc1,AC50,Cytochrome P450 2D6,17.8 µM (inconclusive)
same,IC50,Large T antigen,14.5 µM (active)
OC1=C2C(=Nc3nc(S)nc(O)c3C2c2ccc(Br)cc2)CCC1 (stereo not given),IC50,Leucine aminopeptidase,16.7 µM (active)
same,IC50,[2],> 64 µM (inactive)
same,IC50,Large T antigen,48.1 µM (active)
C=CCOc1c(CNc2ccc3[nH]c(O)nc3c2)cccc1OC,IC50,Large T antigen,96.9 µM (active)
CCOC(=O)c1c(NC(=O)c2ccc(Br)o2)sc2c1CCCC2,IC50,Coagulation factor XII,> 50 µM (inactive)
Cn1c(SCC(=O)N/N=C/c2ccc(O)c(O)c2)nc2ccccc21,IC50,Large T antigen,3.29 µM (active)
COc1cc(/C=N/n2cnnc2)ccc1OC(=O)c1cccnc1,IC50,[3],32 µM (active)
same,IC50,Coagulation factor XII,> 50 µM (inactive)
CC(NC(=O)c1ccc(Cn2cc([N+](=O)[O-])cn2)o1)c1ccccc1 (stereo not given),AC50,Cytochrome P450 1A2,17.8 µM (inconclusive)
same,IC50,[2],> 64 µM (inactive)
CCOc1ccc2nc(O)c(C(c3nnnn3C3CCCCC3)N3CCN(C)CC3)cc2c1 (stereo not given),IC50,Coagulation factor XII,> 50 µM (inactive)
CC(=O)Nc1sc(N/N=C\c2ccco2)nc1-c1cccs1,IC50,[4],5.23 µM (active)
same,IC50,Large T antigen,50.8 µM (active)
Nc1ccc2[nH]c(-c3ccc(Cl)cc3)nc2c1,IC50,[3],37.8 µM (active)
same,IC50,[4],8.16 µM (not active)
same,EC50,Streptokinase A,> 150 µM (not active)
same,EC50,Streptococcus,> 150 µM (not active)
CSC1=NSC2=NC(=O)/C(=C\c3c(C)[nH]c4ccc(C)cc34)C(=N)N12,IC50,Coagulation factor XII,> 50 µM (inactive)
O=C(NCCc1ccccc1)c1cc(=O)c2ccccc2o1,IC50,Coagulation factor XII,> 50 µM (inactive)
Cc1ccc([N+](=O)[O-])cc1-c1ccc2cccc(C)c2n1,IC50,[2],> 64 µM (inactive)
COC(=O)c1c(NC(=O)c2c(-c3ccccc3Cl)noc2C)sc2c1CCC2,IC50,Coagulation factor XII,4.24 µM (active)
CC(=O)OC1=C(C#N)Cn2ccc3cccc1c32,IC50,[2],> 64 µM (inactive)
O=C(NC(=S)Nc1ccc(O)cc1)c1ccccc1Cl,IC50,Large T antigen,6.97 µM (active)
FC(F)C(F)(F)C(F)(F)C(F)(F)c1cc(-c2ccccc2)n[nH]1,IC50,Coagulation factor XII,> 50 µM (inactive)
Brc1cccc(C2CC(c3ccccc3)n3nnnc3N2)c1 (stereo not given),IC50,[5],> 47.1 µM (inactive)
same,EC50,[6],> 53 µM (inactive)
same,IC50,[2],> 64 µM (inactive)
